Source: patent US12493040B2, “Cancer detection method using sense of smell of nematode” (HIROTSU BIO SCIENCE INC., priority 2013, dated 2025)
Values belong to the compound of their own block, whether it stands above or below them.

Test system: RNAi-treated eri-1 (mg366) nematodes
Assay: RNAi screening of olfactory receptor genes: chemotaxis assay of RNAi-treated nematodes to odorants
Type: in vivo, Caenorhabditis elegans
Description: The RNAi assay was carried out by performing an RNAi method involving the feeding (feeding RNAi method) of eri-1 (mg366) (19), using an Ahringer library (37).
Nine adult eri-1 mutants were placed on an NGM plate containing isopropyl 1-D-1-thiogalactopyranoside (0.19 g/L), ampicillin (60 mg/L), and Escherichia coli (E. coli), and were then cultured for 4 days. Subsequently, the adult worms were used in a chemotaxis assay. The chemotaxis assay was carried out as previously reported (6, 17). In the chemotaxis assay, the present inventor has used 30 to 50 worms in each experiment in which 1 μl of 10^−3- or 10^−4-diluted odorant (low concentration), or 1 and 5 μl of undiluted odorants (high concentration) were used.
The z score and a control value in each single test from 2SD were calculated in all days (Table 3) or every day. The z score was used as a threshold indicating a great difference (−1.96 and 1.96, P<0.05). […] Accordingly, the present inventor has used the z score±1 (−0.96 and 0.96, P<0.33) as a weaker threshold.

[1] = Control nematodes, repellent or high concentration of attractant
[2] = srh-4 RNAi-treated nematodes, repellent or high concentration of attractant
[3] = srh-7 RNAi-treated nematodes, repellent or high concentration of attractant
[4] = srh-8 RNAi-treated nematodes, repellent or high concentration of attractant
[5] = srh-10 RNAi-treated nematodes, repellent or high concentration of attractant
[6] = srh-11 RNAi-treated nematodes, repellent or high concentration of attractant
[7] = srh-15 RNAi-treated nematodes, repellent or high concentration of attractant
[8] = srh-16 RNAi-treated nematodes, repellent or high concentration of attractant
[9] = srh-18 RNAi-treated nematodes, repellent or high concentration of attractant
[10] = srh-19 RNAi-treated nematodes, repellent or high concentration of attractant
[11] = srh-22 RNAi-treated nematodes, repellent or high concentration of attractant
[12] = srh-23 RNAi-treated nematodes, repellent or high concentration of attractant
[13] = srh-24 RNAi-treated nematodes, repellent or high concentration of attractant
[14] = srh-25 RNAi-treated nematodes, repellent or high concentration of attractant
[15] = srh-27 RNAi-treated nematodes, repellent or high concentration of attractant
[16] = srh-28 RNAi-treated nematodes, repellent or high concentration of attractant
[17] = srh-36 RNAi-treated nematodes, repellent or high concentration of attractant
[18] = srh-37 RNAi-treated nematodes, repellent or high concentration of attractant
[19] = srh-39 RNAi-treated nematodes, repellent or high concentration of attractant
[20] = srh-40 RNAi-treated nematodes, repellent or high concentration of attractant
[21] = srh-41 RNAi-treated nematodes, repellent or high concentration of attractant
[22] = srh-44 RNAi-treated nematodes, repellent or high concentration of attractant
[23] = srh-45 RNAi-treated nematodes, repellent or high concentration of attractant
[24] = srh-46 RNAi-treated nematodes, repellent or high concentration of attractant
[25] = srh-48 RNAi-treated nematodes, repellent or high concentration of attractant
[26] = srh-49 RNAi-treated nematodes, repellent or high concentration of attractant
[27] = srh-50 RNAi-treated nematodes, repellent or high concentration of attractant
[28] = srh-51 RNAi-treated nematodes, repellent or high concentration of attractant
[29] = srh-52 RNAi-treated nematodes, repellent or high concentration of attractant
[30] = srh-55 RNAi-treated nematodes, repellent or high concentration of attractant
[31] = srh-59 RNAi-treated nematodes, repellent or high concentration of attractant
[32] = srh-60 RNAi-treated nematodes, repellent or high concentration of attractant
[33] = srh-61 RNAi-treated nematodes, repellent or high concentration of attractant
[34] = srh-67 RNAi-treated nematodes, repellent or high concentration of attractant
[35] = srh-68 RNAi-treated nematodes, repellent or high concentration of attractant
[36] = srh-69 RNAi-treated nematodes, repellent or high concentration of attractant
[37] = srh-70 RNAi-treated nematodes, repellent or high concentration of attractant
[38] = srh-71 RNAi-treated nematodes, repellent or high concentration of attractant
[39] = srh-72 RNAi-treated nematodes, repellent or high concentration of attractant
[40] = srh-74 RNAi-treated nematodes, repellent or high concentration of attractant
[41] = srh-75 RNAi-treated nematodes, repellent or high concentration of attractant
[42] = srh-77 RNAi-treated nematodes, repellent or high concentration of attractant
[43] = srh-79 RNAi-treated nematodes, repellent or high concentration of attractant
[44] = srh-80 RNAi-treated nematodes, repellent or high concentration of attractant
[45] = srh-82 RNAi-treated nematodes, repellent or high concentration of attractant
[46] = srh-83 RNAi-treated nematodes, repellent or high concentration of attractant
[47] = srh-97 RNAi-treated nematodes, repellent or high concentration of attractant
[48] = srh-99 RNAi-treated nematodes, repellent or high concentration of attractant
[49] = srh-100 RNAi-treated nematodes, repellent or high concentration of attractant
[50] = srh-104 RNAi-treated nematodes, repellent or high concentration of attractant
[51] = srh-105 RNAi-treated nematodes, repellent or high concentration of attractant
[52] = srh-109 RNAi-treated nematodes, repellent or high concentration of attractant
[53] = srh-111 RNAi-treated nematodes, repellent or high concentration of attractant

SMILES: O=Cc1ccccc1 [High Bz]
- chemotaxis index [1]: −0.91 ± 0.007
- chemotaxis index [2]: −0.75
- chemotaxis index [3]: −1.00
- chemotaxis index [4]: −0.93
- chemotaxis index [5]: −0.95
- chemotaxis index [6]: −0.78
- chemotaxis index [7]: −0.41
- chemotaxis index [8]: −0.88
- chemotaxis index [9]: −0.88
- chemotaxis index [10]: −1.00
- chemotaxis index [11]: −0.80
- chemotaxis index [12]: −0.88
- chemotaxis index [13]: −1.00
- chemotaxis index [14]: −0.73
- chemotaxis index [15]: 0.96
- chemotaxis index [16]: −0.75
- chemotaxis index [17]: −0.95
- chemotaxis index [18]: −1.00
- chemotaxis index [19]: −0.84
- chemotaxis index [20]: −0.87
- chemotaxis index [21]: −0.89
- chemotaxis index [22]: −0.48
- chemotaxis index [23]: −0.96
- chemotaxis index [24]: −0.82
- chemotaxis index [25]: −0.80
- chemotaxis index [26]: −0.76
- chemotaxis index [27]: −1.00
- chemotaxis index [28]: −0.96
- chemotaxis index [29]: −1.00
- chemotaxis index [30]: −0.98
- chemotaxis index [31]: −0.91
- chemotaxis index [32]: −0.98
- chemotaxis index [33]: −0.92
- chemotaxis index [34]: −0.97
- chemotaxis index [35]: −0.87
- chemotaxis index [36]: −0.87
- chemotaxis index [37]: −0.94
- chemotaxis index [38]: −0.91
- chemotaxis index [39]: −0.98
- chemotaxis index [40]: −0.95
- chemotaxis index [41]: −0.94
- chemotaxis index [42]: −0.89
- chemotaxis index [43]: −0.80
- chemotaxis index [44]: −0.87
- chemotaxis index [45]: −0.88
- chemotaxis index [46]: −0.45
- chemotaxis index [47]: −0.86
- chemotaxis index [48]: −0.74
- chemotaxis index [49]: −0.94
- chemotaxis index [50]: −0.91
- chemotaxis index [51]: −0.96
- chemotaxis index [52]: −0.87
- chemotaxis index [53]: −0.79

- chemotaxis index [1]: −0.84 ± 0.011
- chemotaxis index [2]: −0.73
- chemotaxis index [3]: −0.86
- chemotaxis index [4]: −0.94
- chemotaxis index [5]: −0.96
- chemotaxis index [6]: −0.79
- chemotaxis index [7]: −0.60
- chemotaxis index [8]: −0.74
- chemotaxis index [9]: −0.78
- chemotaxis index [10]: −0.89
- chemotaxis index [11]: −0.81
- chemotaxis index [12]: −0.88
- chemotaxis index [13]: −1.00
- chemotaxis index [14]: 0.13
- chemotaxis index [15]: −0.92
- chemotaxis index [16]: −0.64
- chemotaxis index [17]: −0.59
- chemotaxis index [18]: −0.69
- chemotaxis index [19]: −0.79
- chemotaxis index [20]: −0.88
- chemotaxis index [21]: −0.56
- chemotaxis index [22]: 0.00
- chemotaxis index [23]: −0.97
- chemotaxis index [24]: −0.91
- chemotaxis index [25]: −0.67
- chemotaxis index [26]: −0.59
- chemotaxis index [27]: −0.93
- chemotaxis index [28]: −0.85
- chemotaxis index [29]: −0.96
- chemotaxis index [30]: −0.95
- chemotaxis index [31]: −0.87
- chemotaxis index [32]: −0.77
- chemotaxis index [33]: −0.82
- chemotaxis index [34]: −0.96
- chemotaxis index [35]: −0.67
- chemotaxis index [36]: −0.94
- chemotaxis index [37]: −0.40
- chemotaxis index [38]: −0.76
- chemotaxis index [39]: −0.55
- chemotaxis index [40]: −0.51
- chemotaxis index [41]: −0.50
- chemotaxis index [42]: −0.68
- chemotaxis index [43]: −0.22
- chemotaxis index [44]: −0.31
- chemotaxis index [45]: −0.53
- chemotaxis index [46]: 0.34
- chemotaxis index [47]: −0.51
- chemotaxis index [48]: −0.33
- chemotaxis index [49]: −0.64
- chemotaxis index [50]: −0.48
- chemotaxis index [51]: −0.76
- chemotaxis index [52]: −0.68
- chemotaxis index [53]: −0.08
SMILES: CC(C)CCO [High Iaa]

SMILES: O=Cc1ccccc1 [benzaldehyde]
- chemotaxis index (srh-10 RNAi-treated nematodes, low concentration of attractant): 0.12
- chemotaxis index (srh-11 RNAi-treated nematodes, low concentration of attractant): −0.11
- chemotaxis index (srh-15 RNAi-treated nematodes, low concentration of attractant): −0.13
- chemotaxis index (srh-16 RNAi-treated nematodes, low concentration of attractant): 0.83
- chemotaxis index (srh-18 RNAi-treated nematodes, low concentration of attractant): 0.05
- chemotaxis index (srh-19 RNAi-treated nematodes, low concentration of attractant): 0.64
- chemotaxis index (srh-22 RNAi-treated nematodes, low concentration of attractant): 0.28
- chemotaxis index (srh-23 RNAi-treated nematodes, low concentration of attractant): 0.54
- chemotaxis index (srh-24 RNAi-treated nematodes, low concentration of attractant): 0.69
- chemotaxis index (srh-214 RNAi-treated nematodes, low concentration of attractant): 0.57
- chemotaxis index (srh-216 RNAi-treated nematodes, low concentration of attractant): 0.47
- chemotaxis index (srh-217 RNAi-treated nematodes, low concentration of attractant): 0.76
- chemotaxis index (srh-220 RNAi-treated nematodes, low concentration of attractant): 0.61
- chemotaxis index (srh-222 RNAi-treated nematodes, low concentration of attractant): 0.76
- chemotaxis index (srh-223 RNAi-treated nematodes, low concentration of attractant): 0.49
- chemotaxis index (srh-227 RNAi-treated nematodes, low concentration of attractant): 0.56
- chemotaxis index (srh-229 RNAi-treated nematodes, low concentration of attractant): −0.21
- chemotaxis index (srh-233 RNAi-treated nematodes, low concentration of attractant): −0.11
- chemotaxis index (srh-235 RNAi-treated nematodes, low concentration of attractant): 0.32
- chemotaxis index (srh-236 RNAi-treated nematodes, low concentration of attractant): 0.31
- chemotaxis index (srh-239 RNAi-treated nematodes, low concentration of attractant): 0.34
- chemotaxis index (srh-241 RNAi-treated nematodes, low concentration of attractant): 0.66
- chemotaxis index (srh-243 RNAi-treated nematodes, low concentration of attractant): 0.30
- chemotaxis index (srh-244 RNAi-treated nematodes, low concentration of attractant): 0.43
- chemotaxis index (srh-247 RNAi-treated nematodes, low concentration of attractant): 0.40
- chemotaxis index (srh-250 RNAi-treated nematodes, low concentration of attractant): 0.40
- chemotaxis index (srh-251 RNAi-treated nematodes, low concentration of attractant): 0.70
- chemotaxis index (srh-252 RNAi-treated nematodes, low concentration of attractant): 0.71
- chemotaxis index (srh-258 RNAi-treated nematodes, low concentration of attractant): 0.40
- chemotaxis index (srh-261 RNAi-treated nematodes, low concentration of attractant): 0.45
- chemotaxis index (srh-264 RNAi-treated nematodes, low concentration of attractant): 0.38
- chemotaxis index (srh-266 RNAi-treated nematodes, low concentration of attractant): 0.32
- chemotaxis index (srh-274 RNAi-treated nematodes, low concentration of attractant): 0.45
- chemotaxis index (srh-275 RNAi-treated nematodes, low concentration of attractant): 0.16
- chemotaxis index (srh-276 RNAi-treated nematodes, low concentration of attractant): 0.56
- chemotaxis index (srh-277 RNAi-treated nematodes, low concentration of attractant): 0.49
- chemotaxis index (srh-279 RNAi-treated nematodes, low concentration of attractant): 0.34
- chemotaxis index (srh-281 RNAi-treated nematodes, low concentration of attractant): 0.33
- chemotaxis index (srh-282 RNAi-treated nematodes, low concentration of attractant): 0.24
- chemotaxis index (srh-283 RNAi-treated nematodes, low concentration of attractant): 0.21
- chemotaxis index (srh-284 RNAi-treated nematodes, low concentration of attractant): 0.29
- chemotaxis index (srh-291 RNAi-treated nematodes, low concentration of attractant): 0.58
- chemotaxis index (srh-292 RNAi-treated nematodes, low concentration of attractant): 0.48
- chemotaxis index (srh-293 RNAi-treated nematodes, low concentration of attractant): 0.31
- chemotaxis index (srh-297 RNAi-treated nematodes, low concentration of attractant): 0.63
- chemotaxis index (srh-298 RNAi-treated nematodes, low concentration of attractant): 0.66
- chemotaxis index (srh-308 RNAi-treated nematodes, low concentration of attractant): 0.14
